pIC50: −log10 of the molar value. In brackets after ≈: the same amount, converted by molar mass. Like-named read-outs stand apart in the source and are kept apart here. Marks after values point to notes of the source that are not given here.
Key:
S. aureus PhoR (PhoR^S) [1] = biological target: T1, S. aureus PhoR (PhoR^S) (Staphylococcus aureus, UniProt Q2FXN7); assay: In vitro autophosphorylation kinase assay with γ-32P-ATP, PhoR^S; assay type: biochemical; conditions: IC50 PhoR^S, autophosphorylation, one time point (30 sec), 10% DMSO
T1 sequence (Q2FXN7 entry or part of it): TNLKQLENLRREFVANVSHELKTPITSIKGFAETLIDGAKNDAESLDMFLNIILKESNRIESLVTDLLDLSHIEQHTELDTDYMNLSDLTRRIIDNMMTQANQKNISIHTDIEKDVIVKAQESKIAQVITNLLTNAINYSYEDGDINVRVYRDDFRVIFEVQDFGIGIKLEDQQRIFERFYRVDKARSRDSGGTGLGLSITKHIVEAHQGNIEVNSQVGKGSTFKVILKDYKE
Method: (§1) To evaluate the inhibitory capacity of selected hits from DSF, SBVS and LBSS in vitro autophosphorylation kinase assays with γ-^32P-ATP were performed as previously described. Ligands were dissolved in 100% DMSO. […] Controls lacking ligands contained an equal concentration of DMSO. Inhibition of autophosphorylation was determined by incubating 0.12 mg/ml (≈4 μM) HK and up to 20 mM fragment in kinase buffer (50 mM Tris HCl, pH 8.5, 50 mM KCl, 5 mM MgCl2, 0.5 mM EDTA and 0.1 mM DTT). Autophosporylation reactions were initiated by addition of 0.1 μCi/μl γ-^32P-ATP containing from 0.03 to 0.06 μM ATP (final concentrations). Autophosphorylation was quenched with 2xSDS-PAGE sample buffer supplemented with 50 mM EDTA. Samples were applied without heating to 15% (w/v) Tris-glycine SDS-polyacrylamide gels. After electrophoresis, the bottoms of the gels were removed to lower the background from the unincorporated radiolabeled ATP. Gels were dried without staining on a Bio-Rad Gel Air drying system and the phosphorylated protein was quantified by phosphor-imaging. Prism GraphPad was used for curve fitting and statistical analysis.

E. coli PhoR (PhoR^E) [2] = biological target: T2, E. coli PhoR (PhoR^E) (Escherichia coli, UniProt P08400); assay: In vitro autophosphorylation kinase assay with γ-32P-ATP, PhoR^E; assay type: biochemical; conditions: autophosphorylation, one time point (30 sec), 10% DMSO
T2 construct: The catalytic portion (DHp and CA domain) of E. coli PhoR (PhoR^E); made in house; host or cells: E. coli RIL
T2 sequence (P08400 210-425): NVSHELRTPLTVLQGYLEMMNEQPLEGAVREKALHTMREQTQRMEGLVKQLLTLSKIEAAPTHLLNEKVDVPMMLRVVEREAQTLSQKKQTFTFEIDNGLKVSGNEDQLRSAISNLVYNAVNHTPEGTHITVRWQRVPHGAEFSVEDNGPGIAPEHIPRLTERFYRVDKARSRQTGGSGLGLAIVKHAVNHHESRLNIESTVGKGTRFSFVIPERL
Method: as §1, with “Samples were applied without heating to 15% (w/v) Tris-glycine SDS-polyacrylamide gels.” left out

T. maritima HK853 = biological target: T3, T. maritima HK853 (Thermotoga maritima, UniProt Q9WZV7); assay: In vitro autophosphorylation kinase assay with γ-32P-ATP, HK853; assay type: biochemical
T3 sequence (Q9WZV7 232-489): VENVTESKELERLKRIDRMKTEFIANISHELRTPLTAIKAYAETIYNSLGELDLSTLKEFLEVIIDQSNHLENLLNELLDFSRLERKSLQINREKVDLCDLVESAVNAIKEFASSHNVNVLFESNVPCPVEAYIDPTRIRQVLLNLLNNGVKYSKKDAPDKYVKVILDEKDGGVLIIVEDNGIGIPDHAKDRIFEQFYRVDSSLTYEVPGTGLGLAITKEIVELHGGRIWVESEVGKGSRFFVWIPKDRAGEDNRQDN
Method: as §1

S. pneumoniae WalK = biological target: T4, S. pneumoniae WalK (Streptococcus pneumoniae, UniProt Q8DPL8); assay: In vitro autophosphorylation kinase assay with γ-32P-ATP, WalK; assay type: biochemical; conditions: autophosphorylation, one time point (30 sec), 10% DMSO
T4 construct: WalK (amino acids from 208 to 449); N-terminal His6-3C site of vector pOPINF (own knowledge of the vector); made in house; host or cells: E. coli RIL
T4 sequence (Q8DPL8 208-449): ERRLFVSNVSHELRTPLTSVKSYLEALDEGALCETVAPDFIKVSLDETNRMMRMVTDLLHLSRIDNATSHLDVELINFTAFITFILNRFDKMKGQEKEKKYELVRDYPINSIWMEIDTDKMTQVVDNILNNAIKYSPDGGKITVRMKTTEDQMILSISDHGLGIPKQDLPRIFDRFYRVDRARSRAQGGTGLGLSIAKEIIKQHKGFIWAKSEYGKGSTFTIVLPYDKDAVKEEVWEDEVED
Method: as §1, with “Samples were applied without heating to 15% (w/v) Tris-glycine SDS-polyacrylamide gels.” left out

Staphylococcus aureus = assay: Antibacterial susceptibility testing (MIC/MBC), S. aureus; assay type: cell-based; conditions: Staphylococcus aureus, DSM20231, strain DSM 20231; for MBC: read-out: MBC S. aureus DSM 20231; for MIC: read-out: MIC S. aureus DSM 20231
Method: (§2) Minimal inhibitory concentrations (MICs) were determined following a standard double-dilution method. […] For S. pneumoniae MICs were determined by adapting the standard double-dilution method to anaerobic conditions and of this microorganism (use of Todd Hewitt Yeast extract with 200 U/mL of catalase and continuous monitoring of growth).

[3] = system: Staphylococcus epidermidis; assay: Antibacterial susceptibility testing (MIC/MBC), S. epidermidis; assay type: cell-based; conditions: for MBC / MIC: Staphylococcus epidermidis, DSM20044, strain DSM 20044; for MIC: read-out: MIC S. epidermidis DSM 20044; for MIC S. epidermidis DSM 20044: strain DSM 20044
Method: as §2

Escherichia coli = assay: Antibacterial susceptibility testing (MIC/MBC), E. coli; assay type: cell-based; conditions: strain CFT 073; for MBC / MIC: Escherichia coli; for MBC: read-out: MBC E. coli CFT 073; for MIC: read-out: MIC E. coli CFT 073
Method: as §2

E. coli PhoR (PhoR^E) [4] = biological target: T2, E. coli PhoR (PhoR^E); assay: Aggregation analysis by native-PAGE, PhoR^E; conditions: 2 mM (S5 and S6 5 mM), 10% DMSO
Method: (§3) E. coli PhoR and EnvZ, and S. aureus PhoR ([…], final concentration) were prepared in kinase buffer. […] DMSO in the assays was maintained to a final concentration 10% (v/v). After 30 min of incubation at room temperature Native polyacrylamide gel electrophoresis (Native-PAGE) loading buffer was added and samples loaded. Coomassie blue staining was used for protein visualization.

S. aureus PhoR (PhoR^S) [5] = biological target: T1, S. aureus PhoR (PhoR^S); assay: Aggregation analysis by native-PAGE, PhoR^S; conditions: 2 mM (S5 and S6 5 mM), 10% DMSO
Method: as §3

[6] = Solubility in kinase buffer; assay type: physicochemical; conditions: kinase buffer with 10% DMSO, pH 8.5, aqueous with cosolvent or surfactant or cyclodextrin, kinetic from dmso stock; kinase buffer in the presence of 10% DMSO; read-out: concentration above which not soluble / reduced solubility in kinase buffer

SMILES	pIC50 (S. aureus PhoR (PhoR^S) [1])	pIC50 (E. coli PhoR (PhoR^E) [2]; IC50 PhoR^E)	pIC50 (T. maritima HK853)	pIC50 (S. pneumoniae WalK; IC50 WalK)	MBC (Staphylococcus aureus)	MIC (Staphylococcus aureus)	MBC [3]	MIC [3]	MIC S. epidermidis DSM 20044 [3]	MBC (Escherichia coli)	MIC (Escherichia coli)	HK aggregation, PhoR^E (E. coli PhoR (PhoR^E) [4])	HK aggregation, PhoR^S (S. aureus PhoR (PhoR^S) [5])	solubility [6]	pIC50 (E. coli PhoR (PhoR^E) [2]; read-out: IC50 PhoR^E)	pIC50 (T. maritima HK853; autophosphorylation, one time point (30 sec), 10% DMSO, read-out: IC50 HK853)	pIC50 (S. pneumoniae WalK; read-out: IC50 WalK)	MIC E. coli CFT 073 (Escherichia coli)
CCC(Nc1cccc(NC(C)=O)c1)c1ccc(F)cc1 (centres unmarked) [S5]	~3.00	~3.00	< 2.30	< 3.00	> 500 µg/mL	> 500 µg/mL	> 500 µg/mL	500 µg/mL (≈ 1750 µM)	500^# μg/ml	> 500 µg/mL	> 500 µg/mL	do not cause HK aggregation	do not cause HK aggregation	≤ 1300 µM	–	–	–	–
CC(=O)Nc1cccc(C(C)NCc2cccc(Br)c2)c1 (centres unmarked) [S6]	2.94	–	–	~3.00	> 500 µg/mL	> 500 µg/mL	> 500 µg/mL	500 µg/mL (≈ 1440 µM)	500^# μg/ml	> 500 µg/mL	500 µg/mL (≈ 1440 µM)	do not cause HK aggregation	do not cause HK aggregation	–	3.43	< 2.30	< 3.00	500^# μg/ml

From paper PMC4865847, “Putative histidine kinase inhibitors with antibacterial effect against multi-drug resistant clinical isolates identified by in vitro and in silico screens” (Scientific Reports, 2016)
